Measured values as given in patent publication US20160082016A1, “Use of Clonazepam in Combination with Antibiotic in the Treatment of Bacterially Induced Meningitis” (COMMISSARIAT A L'ENERGIE ATOMIQUE ET AUX ENERGIES …, priority 2013, published 2016).

How the values were obtained:
[1] = in vivo; cited from earlier work
Streptococcus Pneumoniae [2] = test: Antibiogram: growth inhibition diameter around paper disks on Mueller-Hinton gelose; format: cell-based; settings: 24 hours, FIG. 5
Procedure: Antibiograms have been performed on the same Streptococcus Pneumoniae strain, on a Mueller-Hinton gelose plate of 90 mm diameter (Biorad) as follows 40 μL of the prepared bacteria were added to 5 mL PBS and the mix is spread on the gelose plate. The remaining liquid mix is thrown and the plate was incubated at 37° C. during 15 minutes. Antibiotic paper disks of 6mm diameter (Dominique Dutscher) were then overwhelmed with 25 μL of each molecule/combination and placed on the Mueller-Hinton gelose for 24 hours. The inhibition diameter of bacterial cell growth around the disks was then measured. • Ceftriaxone (3,2-1,6-0,8-0,4-0,2-0,1-0,05 μg/mL) • Clonazepam (10-1-0,1 μg/mL) • Ceftriaxone (0,8-0,2-0,05 μg/mL)+Clonazepam (0,1 μg/mL)

Streptococcus Pneumoniae [3] = test: Survival of Swiss mice inoculated with Streptococcus Pneumoniae, treated with ceftriaxone plus adjuvant (bacterial meningitis model); format: in vivo
Procedure: 200 μL of suspended 1 Mc Farland bacteria (Streptococcus Pneumoniae, CRBIP, Institut Pasteur) were seeded overnight on blood Columbia plates (BioRad). 24 h later, bacteria were suspended in 5 mL phosphate buffer solution (PBS), and diluted to obtain 1 Mc Farland 600 nm optical density (3,2.10^7 bacteria/mL for this strain).
A mice model mimicking human bacterial meningitis (Gerber G., Acta Neuropathol. 2001) was implemented; Swiss male mice were used, with food and water ab libitum. Mice were anaesthetized using isoflurane.
The Swiss mice model has been chosen for the following reasons: • It is possible to induce bacterial meningitis in a direct and reproducible way (Gerber G., Acta Neuropathol. 2001). • The induced meningitis is similar to human meningitis (Gerber G., Acta Neuropathol. 2001). In particular, the inoculated mice present several […] symptoms/responses as infected humans. The data obtained with this model can therefore be transposed to human. • Efficiency of antibiotic agents for treating bacterial meningitis is currently studied in mice (Shapiro M. A. et al, J. Antimicrob. Chemother. 2000).
A 1/80 dilution of the prepared bacteria was then performed, so as to obtain 10^4 bacteria in 25 μL. 25 μL bacteria suspension were injected in the left brain hemisphere. 24 h, 48 h and 72 h later, mice were treated with 4 mg/day, 0.4 mg/day and 0.4 mg/day respectively of ceftriaxone. Clonazepam (or saline buffer, or water) was administrated 25 h post inoculation, by intraperitoneal (ip) or oral (po) route. Mortality was assessed several times per day, during 9 days.

[4] = test system: pentylenetetrazol (PTZ) induced tonic seizures; test: Anti-epileptic effect at low dose: time before pentylenetetrazol (PTZ) induced tonic seizure; format: in vivo, mice

| SMILES | half-life [1] [h] | Growth inhibition diameter (potentiation of ceftriaxone in vitro) (Streptococcus Pneumoniae [2]; ceftriaxone 0,8-0,2-0,05 μg/mL + clonazepam 0,1 μg/mL) | Growth inhibition diameter (intrinsic antibiotic activity) (Streptococcus Pneumoniae [2]; clonazepam alone 10, 1, 0,1 μg/mL) | Kaplan-Meier survival rate (Streptococcus Pneumoniae [3]; clonazepam 1 μg/kg ip + ceftriaxone, compared with 4 μg/kg, p=0,045 Logrank, FIG. 2) | Kaplan-Meier survival rate (Streptococcus Pneumoniae [3]; clonazepam 2 μg/kg ip + ceftriaxone, compared with 4 μg/kg, p=0,045 Logrank, FIG. 2) | Kaplan-Meier survival rate (Streptococcus Pneumoniae [3]; clonazepam 4 μg/kg ip 25 h after inoculation + ceftriaxone 4, 0.4, 0.4 mg/day at 24, 48, 72 h, vs ceftriaxone + NaCl, p=0,04 Logrank, FIG. 1) | Kaplan-Meier survival rate, oral vs intraperitoneal (Streptococcus Pneumoniae [3]; clonazepam 4 μg/kg orally + ceftriaxone, compared with intraperitoneally administered combination, FIGS. 1, 3, 6) | Kaplan-Meier survival rate (Streptococcus Pneumoniae [3]; clonazepam 20 μg/kg ip + ceftriaxone, compared with 4 μg/kg, FIG. 1) | Kaplan-Meier survival rate (Streptococcus Pneumoniae [3]; clonazepam 100 μg/kg ip + ceftriaxone, compared with 4 μg/kg, FIG. 1) | Amount giving satisfactory potentiating effects in mice (Streptococcus Pneumoniae [3]; mice, clonazepam with antibiotic) | Anti-epileptic effect (time before tonic seizures) ([4]; Streptococcus Pneumoniae inoculated mice, clonazepam doses inferior to 5 μg/kg, FIG. 4) | Anti-epileptic effect at the efficient adjuvant dose ([4]; clonazepam 4 μg/kg, concluded from the 1-125 μg/kg experiments) | Amount at which clonazepam has an anti-epileptic effect ([4]; healthy (non inoculated) mice, ip pretreatment 60 min before PTZ, FIG. 4) [µg/kg] | Anti-epileptic effect (time before tonic seizures) ([4]; healthy mice, clonazepam 1 μg/kg ip, FIG. 4) | Anti-epileptic effect (time before tonic seizures) ([4]; healthy mice, clonazepam 5 μg/kg ip, FIG. 4) | Growth inhibition diameter (Streptococcus Pneumoniae [2]; ceftriaxone alone 0,05-3,2 μg/mL) |
| --- | --- | --- | --- | --- | --- | --- | --- | --- | --- | --- | --- | --- | --- | --- | --- | --- |
| O=C1CN=C(c2ccccc2Cl)c2cc([N+](=O)[O-])ccc2N1 [clonazepam, 5-(2-chlorphenyl)-1,3-dihydro-7-nitro-2H-1,4-benzodiazepine-2-one] | 18 to 50 | Nor is it able to potentiate the antibiotic activity of ceftriaxone in vitro | no intrinsic antibiotic activity | significantly less efficient | significantly less efficient | survival increase | lower | not as efficient | not as efficient | at least 2 μg/kg | no epileptic effect | no epileptic effect | ≥ 25 | no effect | no effect | – |
| CO/N=C(\C(=O)N[C@@H]1C(=O)N2C(C(=O)O)=C(CSc3nc(=O)c(=O)[nH]n3C)CS[C@H]12)c1csc(N)n1 [ceftriaxone] | – | – | – | – | – | – | – | – | – | – | – | – | – | – | – | inhibit bacterial growth in a dose-dependent manner |
